Source: patent publication US8247211B2, “Glycopeptide antibiotics” (American Cyanamid Company, priority 2001, dated 2012)
Converted amounts (≈) assume the structure as drawn.

What was measured:
Assay in all cases: In vitro antibacterial evaluation: minimum inhibitory concentration (MIC), broth dilution method
Format in all cases: cell-based
[1] = system: Enterococcus sp.; conditions: broth dilution, 5×10^5 CFU/mL, 18 hours at 35° C.
Experimental: (§1) The minimum inhibitory concentration (MIC), the lowest concentration of the antibiotic which inhibits growth of the test organism, is determined by the broth dilution method using Muller-Hinton II […] (Baltimore Biological Laboratories) following the recommendations of the National Committee for Clinical Laboratory Standards [Methods for dilution antimicrobial susceptibility tests for bacteria that grow aerobically, approved standard M7-A2, National Committee for Clinical Laboratory Standards, Villanova, Pa].
(§2) An inoculum level of 5×10^5 CFU/mL, and a range of antibiotic concentrations (64-0.06 μg/mL) is used. […] The test organisms include a spectrum of Gram-positive bacteria comprised of Staphylococcus sp., Streptococcus sp. and Enterococcus sp. These organisms include recent clinical isolates that are resistant to methicillin, penicillin and/or vancomycin.

[2] = system: Escherichia coli; conditions: 5×10^5 CFU/mL, 18 hours at 35° C.
Experimental: as §1, §2

[3] = system: Staphylococcus sp.; conditions: for MIC Staphylococcus aureus (ATCC 29213): strain ATCC 29213; for MIC Staphylococcus aureus (GC 1131): strain GC 1131; for MIC Staphylococcus aureus (GC 3051): strain GC 3051; for MIC Staphylococcus aureus (GC 3053): strain GC 3053; for MIC Staphylococcus aureus (GC 4541): strain GC 4541; for MIC Staphylococcus aureus (GC 4542): strain GC 4542; for MIC Staphylococcus aureus-SMITH (GC 4543): strain GC 4543; for MIC Staphylococcus aureus (GC 4544): strain GC 4544; for MIC Staphylococcus aureus (GC 4545): strain GC 4545; for MIC Staphylococcus haemolyticus (GC 4546): strain GC 4546; for MIC Coagulase Negative Staphylococcus (GC 4547): strain GC 4547; for MIC Coagulase Negative Staphylococcus (GC 4548): strain GC 4548; for MIC Coagulase Negative Staphylococcus (GC 4549): strain GC 4549; for MIC Coagulase Negative Staphylococcus (GC 4551): strain GC 4551; for MIC Coagulase Negative Staphylococcus (GC 6257): strain GC 6257
Experimental: as §1, §2

[4] = system: Streptococcus sp.; conditions: broth dilution, 5×10^5 CFU/mL, 18 hours at 35° C.
Experimental: as §1, §2

[5] = broth dilution, 18 hours at 35° C.

## CC(c1ccccc1)C1NC(=O)CNC(=O)C(CO)NC(=O)C(C(O)C2CNC(=N)N2C2OC(CO)C(O)C(O)C2O)NC(=O)C(C(O)C2CNC(=N)N2)NC(=O)C(Cc2ccc(OC3OC(CO)C(OC4OC5COC(CC6CCCCC6)OC5C(O)C4O)C(O)C3O)cc2)NC1=O (centres unmarked) [Example 122]
[1]
  MIC Enterococccus avium (GC 4558): 2 mg/L (≈ 1.43 µM)
  MIC Enterococccus faecalis (ATCC 29212): 2 mg/L (≈ 1.43 µM)
  MIC Enterococccus faecalis (GC 2691): 2 mg/L (≈ 1.43 µM)
  MIC Enterococccus faecalis (GC 3059): 2 mg/L (≈ 1.43 µM)
  MIC Enterococccus faecalis (GC 4552): 2 mg/L (≈ 1.43 µM)
  MIC Enterococccus faecalis (GC 4553): 4 mg/L (≈ 2.85 µM)
  MIC Enterococccus faecalis (GC 4554): 2 mg/L (≈ 1.43 µM)
  MIC Enterococccus faecalis (GC 6189): 2 mg/L (≈ 1.43 µM)
  MIC Enterococccus faecium (GC 2243): 2 mg/L (≈ 1.43 µM)
  MIC Enterococccus faecium (GC 4556): 2 mg/L (≈ 1.43 µM)
  MIC Enterococccus faecium (GC 4557): 4 mg/L (≈ 2.85 µM)
  MIC Enterococcus faecalis (GC 2242): 2 mg/L (≈ 1.43 µM)
[2]
  MIC Escherichia coli (ATCC 25922): 32 mg/L (≈ 22.8 µM)
  MIC Escherichia coli (GC 4559): 32 mg/L (≈ 22.8 µM)
  MIC Escherichia coli (GC 4560): 2 mg/L (≈ 1.43 µM)
[3]
  MIC Staphylococcus aureus (ATCC 29213): 2 mg/L (≈ 1.43 µM)
  MIC Staphylococcus aureus (GC 1131): 2 mg/L (≈ 1.43 µM)
  MIC Staphylococcus aureus (GC 3051): 2 mg/L (≈ 1.43 µM)
  MIC Staphylococcus aureus (GC 3053): 2 mg/L (≈ 1.43 µM)
  MIC Staphylococcus aureus (GC 4541): 2 mg/L (≈ 1.43 µM)
  MIC Staphylococcus aureus (GC 4542): 2 mg/L (≈ 1.43 µM)
  MIC Staphylococcus aureus (GC 4544): 1 mg/L (≈ 0.713 µM)
  MIC Staphylococcus aureus (GC 4545): 2 mg/L (≈ 1.43 µM)
  MIC Staphylococcus haemolyticus (GC 4546): 2 mg/L (≈ 1.43 µM)
  MIC Coagulase Negative Staphylococcus (GC 4547): 2 mg/L (≈ 1.43 µM)
  MIC Coagulase Negative Staphylococcus (GC 4548): 1 mg/L (≈ 0.713 µM)
  MIC Coagulase Negative Staphylococcus (GC 4549): 1 mg/L (≈ 0.713 µM)
  MIC Coagulase Negative Staphylococcus (GC 4551): 2 mg/L (≈ 1.43 µM)
  MIC Coagulase Negative Staphylococcus (GC 6257): 1 mg/L (≈ 0.713 µM)
[3]; [5]
  MIC Staphylococcus aureus (ATCC 29213): 2 mg/L (≈ 1.43 µM)
  MIC Staphylococcus aureus (GC 1131): 2 mg/L (≈ 1.43 µM)
  MIC Staphylococcus aureus (GC 3051): 2 mg/L (≈ 1.43 µM)
  MIC Staphylococcus aureus (GC 3053): 2 mg/L (≈ 1.43 µM)
  MIC Staphylococcus aureus (GC 4541): 2 mg/L (≈ 1.43 µM)
  MIC Staphylococcus aureus (GC 4542): 2 mg/L (≈ 1.43 µM)
  MIC Staphylococcus aureus-SMITH (GC 4543): 2 mg/L (≈ 1.43 µM)
  MIC Staphylococcus aureus (GC 4544): 1 mg/L (≈ 0.713 µM)
  MIC Staphylococcus aureus (GC 4545): 2 mg/L (≈ 1.43 µM)
  MIC Staphylococcus haemolyticus (GC 4546): 2 mg/L (≈ 1.43 µM)
  MIC Coagulase Negative Staphylococcus (GC 4547): 2 mg/L (≈ 1.43 µM)
  MIC Coagulase Negative Staphylococcus (GC 4548): 1 mg/L (≈ 0.713 µM)
  MIC Coagulase Negative Staphylococcus (GC 4549): 1 mg/L (≈ 0.713 µM)
  MIC Coagulase Negative Staphylococcus (GC 4551): 2 mg/L (≈ 1.43 µM)
  MIC Coagulase Negative Staphylococcus (GC 6257): 1 mg/L (≈ 0.713 µM)
[3]; 18 hours at 35° C.
  MIC Staphylococcus aureus-SMITH (GC 4543): 2 mg/L (≈ 1.43 µM)
[4]
  MIC Streptococcus agalactiae (GC 4564): 0.12 mg/L (≈ 0.0855 µM)
  MIC Streptococcus pneumoniae (GC 1894): <0.06 mg/L
  MIC Streptococcus pneumoniae (GC 4565): 0.12 mg/L (≈ 0.0855 µM)
  MIC Streptococcus pneumonine (ATCC 6301): <0.06 mg/L
  MIC Streptococcus pyogenes (GC 4563): <0.06 mg/L
